Holding throughout (format): functional, cell-based
The test system of assay [1] is MDA-MB-231. The assay is described as follows: Antiproliferative activity against human MDA-MB-231 cells assessed as inhibition of cell growth incubated for 48 hrs by MTT assay. Particulars: MDA-MB-231, 48 h. (In general: Tetrazolium dyes change colour on reduction, which living cells bring about.)
In assay [2] the test system is A549. As to the kind of experiment: Antiproliferative activity against human A549 cells assessed as inhibition of cell growth incubated for 48 hrs by MTT assay. Particulars: A549, 48 h.
Assay [3] relates to HCT-116. The assay is described as follows: Antiproliferative activity against human HCT-116 cells assessed as inhibition of cell growth incubated for 48 hrs by MTT assay. Particulars: HCT-116, 48 h.
The test system of assay [4] is U2OS. The assay is described as follows: Antiproliferative activity against human U2OS cells assessed as inhibition of cell growth incubated for 48 hrs by MTT assay.

One may read the IC50 as the concentration that gives 50% inhibition. `CC1=C(O)C(=O)C=C2C1=CC=C1[C@@]2(C)CC[C@@]2(C)[C@@H]3C[C@](C)(C(=O)OCCCn4cnc([N+](=O)[O-])c4)CC[C@]3(C)CC[C@]12C`: the IC50 in assay [1] was 690 nM; in assay [2] it was 670 nM; in assay [3], 630 nM; in assay [4], 700 nM.

Regarding `CC1=C(O)C(=O)C=C2C1=CC=C1[C@@]2(C)CC[C@@]2(C)[C@@H]3C[C@](C)(C(=O)OCCCCCCn4ccnc4[N+](=O)[O-])CC[C@]3(C)CC[C@]12C`, the IC50 in assay [1] was 1210 nM; in assay [2], 730 nM; in assay [3], 640 nM; in assay [4], 830 nM.

Turning to `CC1=C(O)C(=O)C=C2C1=CC=C1[C@@]2(C)CC[C@@]2(C)[C@@H]3C[C@](C)(C(=O)OCCCCCCn4cnc([N+](=O)[O-])c4)CC[C@]3(C)CC[C@]12C`, the IC50 worked out at 950 nM in assay [1], 790 nM in assay [2], 630 nM in assay [3] and 880 nM in assay [4].

Take `CC1=C(O)C(=O)C=C2C1=CC=C1[C@@]2(C)CC[C@@]2(C)[C@@H]3C[C@](C)(C(=O)OCCCCn4cc([N+](=O)[O-])nc4Cl)CC[C@]3(C)CC[C@]12C`: the IC50 was 1020 nM in assay [1], 790 nM in assay [2], 720 nM in assay [3] and 620 nM in assay [4].

Turning to `COC(=O)[C@]12CCC(C)(C)C[C@H]1[C@H]1C(=O)C=C3[C@@]4(C)C=C(C#N)C(=O)C(C)(C)[C@@H]4CC[C@@]3(C)[C@]1(C)CC2` [BARDOXOLONE METHYL], the half-maximal inhibitory concentration (IC50) in assay [1] stood at 560 nM; in assay [2], 630 nM; in assay [3] it was 840 nM; in assay [4], 740 nM.

Turning to `CC1=C(O)C(=O)C=C2C1=CC=C1[C@@]2(C)CC[C@@]2(C)[C@@H]3C[C@](C)(C(=O)OCCCCCn4cnc([N+](=O)[O-])c4)CC[C@]3(C)CC[C@]12C`, the IC50 amounted to 600 nM in assay [1], 710 nM in assay [2], 610 nM in assay [3] and 600 nM in assay [4].

`CC1=C(O)C(=O)C=C2C1=CC=C1[C@@]2(C)CC[C@@]2(C)[C@@H]3C[C@](C)(C(=O)OC/C=C/Cn4cc([N+](=O)[O-])nc4Cl)CC[C@]3(C)CC[C@]12C`: the IC50 came to 980 nM in assay [1], 810 nM in assay [2], 700 nM in assay [3] and 610 nM in assay [4].

With `CC1=C(O)C(=O)C=C2C1=CC=C1[C@@]2(C)CC[C@@]2(C)[C@@H]3C[C@](C)(C(=O)OCCCCCCn4cc([N+](=O)[O-])nc4Cl)CC[C@]3(C)CC[C@]12C`, the IC50 stood at 990 nM in assay [1], 900 nM in assay [2], 1120 nM in assay [3] and 910 nM in assay [4].

For the compound `CC1=C(O)C(=O)C=C2C1=CC=C1[C@@]2(C)CC[C@@]2(C)[C@@H]3C[C@](C)(C(=O)OCCCCCn4ccnc4[N+](=O)[O-])CC[C@]3(C)CC[C@]12C`, the IC50 in assay [1] came to 980 nM; in assay [2], 710 nM; in assay [3] it was 600 nM; in assay [4] it was 680 nM.

Consider `CC1=C(O)C(=O)C=C2C1=CC=C1[C@@]2(C)CC[C@@]2(C)[C@@H]3C[C@](C)(C(=O)OCCCn4cnc(C#N)c4C#N)CC[C@]3(C)CC[C@]12C`, for which the IC50 in assay [1] stood at 1450 nM; in assay [2] it was 790 nM; in assay [3] it was 720 nM; in assay [4], 1450 nM.

`CC1=C(O)C(=O)C=C2C1=CC=C1[C@@]2(C)CC[C@@]2(C)[C@@H]3C[C@](C)(C(=O)OCCCCn4ccnc4[N+](=O)[O-])CC[C@]3(C)CC[C@]12C`: the 50% inhibitory concentration (IC50) is 1020 nM in assay [1], 1060 nM in assay [2], 1550 nM in assay [3] and 910 nM in assay [4].

For the compound `CC1=C(O)C(=O)C=C2C1=CC=C1[C@@]2(C)CC[C@@]2(C)[C@@H]3C[C@](C)(C(=O)OCCCn4cc([N+](=O)[O-])nc4Br)CC[C@]3(C)CC[C@]12C`, the IC50 in assay [1] turned out to be 1150 nM; in assay [2], 800 nM; in assay [3], 660 nM; in assay [4], 600 nM.

Turning to `CC1=C(O)C(=O)C=C2C1=CC=C1[C@@]2(C)CC[C@@]2(C)[C@@H]3C[C@](C)(C(=O)OCCCCn4cc([N+](=O)[O-])nc4Br)CC[C@]3(C)CC[C@]12C`, the IC50 in assay [1] amounted to 1220 nM; in assay [2], 930 nM; in assay [3] it was 1850 nM; in assay [4], 680 nM.

On to `COC(=O)c1cn(CCCOC(=O)[C@]2(C)CC[C@]3(C)CC[C@]4(C)C5=CC=C6C(=CC(=O)C(O)=C6C)[C@]5(C)CC[C@@]4(C)[C@@H]3C2)cn1`, for which the IC50 in assay [1] turned out to be 1650 nM; in assay [2], 740 nM; in assay [3], 690 nM; in assay [4], 1350 nM.

Turning to `COC(=O)c1cn(CCCCCOC(=O)[C@]2(C)CC[C@]3(C)CC[C@]4(C)C5=CC=C6C(=CC(=O)C(O)=C6C)[C@]5(C)CC[C@@]4(C)[C@@H]3C2)cn1`, the IC50 is 1550 nM in assay [1], 780 nM in assay [2], 670 nM in assay [3] and 880 nM in assay [4].

`CC1=C(O)C(=O)C=C2C1=CC=C1[C@@]2(C)CC[C@@]2(C)[C@@H]3C[C@](C)(C(=O)OCCCCn4cnc([N+](=O)[O-])c4)CC[C@]3(C)CC[C@]12C`: the half-inhibitory concentration (IC50) was 890 nM in assay [1], 770 nM in assay [2], 700 nM in assay [3] and 890 nM in assay [4].

For the compound `CC1=C(O)C(=O)C=C2C1=CC=C1[C@@]2(C)CC[C@@]2(C)[C@@H]3C[C@](C)(C(=O)OCCCCCCn4cc([N+](=O)[O-])nc4Br)CC[C@]3(C)CC[C@]12C`, the IC50 in assay [1] was 1050 nM; in assay [2], 1320 nM; in assay [3], 1930 nM; in assay [4], 1460 nM.

Turning to `COC(=O)c1cn(CCCCOC(=O)[C@]2(C)CC[C@]3(C)CC[C@]4(C)C5=CC=C6C(=CC(=O)C(O)=C6C)[C@]5(C)CC[C@@]4(C)[C@@H]3C2)cn1`, the concentration for half-maximal inhibition (IC50) in assay [1] is 1870 nM; in assay [2], 1040 nM; in assay [3] it was 950 nM; in assay [4], 1520 nM.

Turning to `CC1=C(O)C(=O)C=C2C1=CC=C1[C@@]2(C)CC[C@@]2(C)[C@@H]3C[C@](C)(C(=O)OCCCCn4cnc(C#N)c4C#N)CC[C@]3(C)CC[C@]12C`, the IC50 in assay [1] was found to be 1670 nM; in assay [2], 1660 nM; in assay [3] it was 1530 nM; in assay [4], 1580 nM.

With `CC1=C(O)C(=O)C=C2C1=CC=C1[C@@]2(C)CC[C@@]2(C)[C@@H]3C[C@](C)(C(=O)OCCCCCn4cc([N+](=O)[O-])nc4Cl)CC[C@]3(C)CC[C@]12C`, the IC50 in assay [1] was found to be 930 nM; in assay [2], 750 nM; in assay [3] it was 780 nM; in assay [4] it was 600 nM.

Regarding `CC1=C(O)C(=O)C=C2C1=CC=C1[C@@]2(C)CC[C@@]2(C)[C@@H]3C[C@](C)(C(=O)OC/C=C/Cn4cnc([N+](=O)[O-])c4)CC[C@]3(C)CC[C@]12C`, the IC50 in assay [1] was 1030 nM; in assay [2], 710 nM; in assay [3], 640 nM; in assay [4], 710 nM.

As to `CC1=C(O)C(=O)C=C2C1=CC=C1[C@@]2(C)CC[C@@]2(C)[C@@H]3C[C@](C)(C(=O)OCCCn4ccnc4[N+](=O)[O-])CC[C@]3(C)CC[C@]12C`, the IC50 in assay [1] turned out to be 900 nM; in assay [2], 750 nM; in assay [3], 1050 nM; in assay [4], 800 nM.

Regarding `CC1=C(O)C(=O)C=C2C1=CC=C1[C@@]2(C)CC[C@@]2(C)[C@@H]3C[C@](C)(C(=O)OCCCn4ccnc4)CC[C@]3(C)CC[C@]12C`, the IC50 in assay [1] was 1550 nM; in assay [2], 1570 nM; in assay [3], 1090 nM; in assay [4], 1650 nM.

Consider `CC1=C(O)C(=O)C=C2C1=CC=C1[C@@]2(C)CC[C@@]2(C)[C@@H]3C[C@](C)(C(=O)OCCCCCCn4cnc(C#N)c4C#N)CC[C@]3(C)CC[C@]12C`, for which the IC50 in assay [1] was determined as 1660 nM; in assay [2], 1080 nM; in assay [3] it was 1160 nM; in assay [4], 1730 nM.

Consider `CC1=C(O)C(=O)C=C2C1=CC=C1[C@@]2(C)CC[C@@]2(C)[C@@H]3C[C@](C)(C(=O)OCCCCCn4cnc(C#N)c4C#N)CC[C@]3(C)CC[C@]12C`, for which the IC50 came out at 1570 nM in assay [1], 1450 nM in assay [2], 790 nM in assay [3] and 1470 nM in assay [4].

Consider `CC1=C(O)C(=O)C=C2C1=CC=C1[C@@]2(C)CC[C@@]2(C)[C@@H]3C[C@](C)(C(=O)OCCCn4cnc(C)c4)CC[C@]3(C)CC[C@]12C`, for which the IC50 in assay [1] stood at 1550 nM; in assay [2], 1970 nM; in assay [3], 1290 nM; in assay [4], 1450 nM.

For `CC1=C(O)C(=O)C=C2C1=CC=C1[C@@]2(C)CC[C@@]2(C)[C@@H]3C[C@](C)(C(=O)OCCCCCn4cc([N+](=O)[O-])nc4Br)CC[C@]3(C)CC[C@]12C`, the IC50 was 980 nM in assay [1], 810 nM in assay [2], 1100 nM in assay [3] and 670 nM in assay [4].

For the compound `COC(=O)c1cn(CCCCCCOC(=O)[C@]2(C)CC[C@]3(C)CC[C@]4(C)C5=CC=C6C(=CC(=O)C(O)=C6C)[C@]5(C)CC[C@@]4(C)[C@@H]3C2)cn1`, the IC50 worked out at 1920 nM in assay [1], 1090 nM in assay [2], 1340 nM in assay [3] and 1480 nM in assay [4].

(Values after ChEMBL document CHEMBL5154774, “Discovery of Novel Celastrol-Imidazole Derivatives with Anticancer Activity In Vitro and In Vivo” (J Med Chem, 2022).)
